Reference: publication PMC5352362, “Molecular and functional evaluation of a novel HIF inhibitor, benzopyranyl 1,2,3-triazole compound” (Oncotarget, 2016)

Tested on: hydroxylated (OH)-HIF-1α at P402 or P564, PHD2, HIF-1β
Assay: Western blot of hydroxylated HIF-1α, PHD2 and HIF-1β in A549 cells
Type: cell-based, human
Settings: 1–100 nM, 16 h
Description: Figure 4 Compound 12 increased hydroxylation and proteasome-mediated degradation of HIF-1α (A) A549 cells were treated with Compound 12 (at concentrations of 0 nM, 1 nM, 10 nM, and 100 nM) for 16 h. Cells were fixed with paraformaldehyde; an immunofluorescence assay was then performed using anti-HIF-1α antibodies and Alexa Fluor 488-labeled secondary antibodies (green). Nuclei were stained with DAPI. N, normoxia; H, hypoxia. (B) A549 cells were treated with Compound 12 (10 nM concentration) and exposed to hypoxic conditions for 16 h. Cells were immediately treated with cycloheximide (CHX, 100 μg/mL) for the time indicated, and HIF-1α protein levels were determined by western blotting. β-actin was used as an internal control. Half-life (t1/2) of HIF-1α protein was determined using relative expression levels of HIF-1α. (C) A549 cells were treated with Compound 12 (at concentrations of 0 nM, 1 nM, 10 nM, and 100 nM) for 16 h. The expression levels of HIF-1α, hydroxylated (OH)-HIF-1α at P402 or P564, and PHD2 were determined via western blotting using specific antibodies. N, normoxia; H, hypoxia. (D) A549 cells were transfected with two kinds of small interfering RNAs targeting PHD2 and then treated with Compound 12 under hypoxic exposure for 16 h. Cell lysates were immunoblotted with an anti-HIF-1α and PHD2 antibody. (E) After A549 cells were treated with Compound 12 for 16 h, cells were treated with MG132 (20 μM) for 4 h. Cell lysates were immunoprecipitated (IP) with anti-HIF-1α antibody, and were then immunoblotted (IB) with anti-ubiquitin antibody. Relative levels of ubiquitinated HIF-1α were quantified and graphed. […]
Proteins extracted from cells using PRO-PREP (iNtRon Biotech, South Korea) were separated by SDS-PAGE and transferred to a nitrocellulose membrane (Whatman, Maidstone, UK). […] Antibody binding was detected using an enhanced chemiluminescence (ECL) kit (BioRad, Hercules, CA) according to the manufacturer's instructions. […]

COc1ccc(-c2cn(CC3(C)C=Cc4cc([N+](=O)[O-])ccc4O3)nn2)cc1 (stereo not drawn) [Compound 12, 4-(4-methoxyphenyl)-1-((2-methyl-6-nitro-2H-chromen-2-yl)methyl)-1H-1,2,3-triazole]
HIF-1β expression: did not inhibit | PHD2 levels: increased even at the lowest dose (1 nM) | hydroxylation of HIF-1α (P402, P564): increased hydroxylation of HIF-1α in a dose-dependent manner
